This experiment has as its system HBV. The experiment in a line: HBV replication inhibition assay (BDNA assay) in HepG2.2.15 cells. The class given is cell-based. To be noted: 6 days treatment, encapsidated HBV DNA in supernatant by branched DNA QuantiGene assay. The source says:
HBV replication inhibition by the compounds of this invention could be determined in cells infected or transfected with HBV, or cells with stably integrated HBV, such as HepG2.2.15 cells (Sells et al. 1987). In this example, HepG2.2.15 cells were maintained in cell culture medium containing 10% fetal bovine serum (FBS), Geneticin, L-glutamine, penicillin and streptomycin. HepG2.2.15 cells could be seeded in 96-well plates at a density of 40,000 cells/well and be treated with serially diluted compounds at a final DMSO concentration of 0.5% either alone or in combination by adding drugs in a checker box format. Cells were incubated with compounds for three days, after which medium was removed and fresh medium containing compounds was added to cells and incubated for another three days. At day 6, supernatant was removed and treated with DNase at 37° C. for 60 minutes, followed by enzyme inactivation at 75° C. for 15 minutes. Encapsidated HBV DNA was released from the virions and covalently linked HBV polymerase by incubating in lysis buffer (Affymetrix QS0010) containing 2.5 μg proteinase K at 50° C. for 40 minutes. HBV DNA was denatured by addition of 0.2 M NaOH and detected using a branched DNA (BDNA) QuantiGene assay kit according to manufacturer recommendation (Affymetrix). HBV DNA levels could also be quantified using qPCR, based on amplification of encapsidated HBV DNA extraction with QuickExtraction Solution (Epicentre Biotechnologies) and amplification of HBV DNA using HBV specific PCR probes that can hybridize to HBV DNA and a fluorescently labeled probe for quantitation. In addition, cell viability of HepG2.2.15 cells incubated with test compounds alone or in combination was determined by using CellTitre-Glo reagent according to the manufacturer protocol (Promega). The mean background signal from wells containing only culture medium was subtracted from all other samples, and percent inhibition at each compound concentration was calculated by normalizing to signals from HepG2.2.15 cells treated with 0.5% DMSO using equation E1. % inhibition=(DMSOave−Xi)/DMSOave×100% E1: where DMSOave is the mean signal calculated from the wells that were treated with DMSO control (0% inhibition control) and Xi is the signal measured from the individual wells. EC50 values, effective concentrations that achieved 50% inhibitory effect, were determined by non-linear fitting using Graphpad Prism software (San Diego, Calif.) and equation E2 Y=Y min+(Y max−Y min)/(1+10(Log EC50−X)×HillSlope) E2: […]
where Y represents percent inhibition values and X represents the logarithm of compound concentrations.
Selected compounds of the invention were assayed in the HBV replication assay (BDNA assay), as described above and a representative group of these active compounds is shown in Table 3. […] In Table 3, “A” represents 0.01<EC50<0.10; “B” represents 0.10≤EC50<0.50; and “C” represents 0.50≤EC50<1.0; (‘+’ indicates >50% activity at 10 μM).

[1] abbreviates: Hepatitis B virus, HepG2.2.15, 144 h.

Consider 46 compounds from US10544141B2, “Derivatives and methods of treating hepatitis B infections” (Novira Therapeutics, Inc., priority 2014, dated 2020).

Usually EC50 stands for the concentration giving half of the maximal effect. For `O=C(Nc1ccc(F)c(F)c1)N1CCc2[nH]nc(C34CCCC3C4)c2C1` (stereo not shown) [Compound 792], the EC50 under setting [1] lay within 100 to 500 nM.
As for `CCCc1n[nH]c2c1CN(C(=O)Nc1cccc(Cl)c1)CC2` [Compound 644, N-(3-chlorophenyl)-3-propyl-1,4,6,7-tetrahydropyrazolo[4,3-c]pyridine-5-carboxamide], the EC50 under setting [1] lay in the range of 100 to 500 nM.
`CC1(c2n[nH]c3c2CN(C(=O)Nc2cccc(Cl)c2)CC3)CC1` [Compound 441]: under setting [1], the EC50 was in the range of 100 to 500 nM.
Turning to `O=C(Nc1cccc(Cl)c1)N1CCc2[nH]nc(C3=CC(F)CC3)c2C1` (stereo not shown) [Compound 744, N-(3-chlorophenyl)-3-(3-fluorocyclopenten-1-yl)-1,4,6,7-tetrahydropyrazolo[4,3-c]pyridine-5-carboxamide], the EC50 under setting [1] fell in the range of 10 to 100 nM.
On to `C[C@H]1Cc2[nH]nc(C3CCCC3)c2CN1C(=O)Nc1ccc(F)c(C#N)c1` [930 S], for which the EC50 under setting [1] lay in the range of 10 to 100 nM.
With `CCCC(F)(F)c1n[nH]c2c1CN(C(=O)Nc1cccc(Cl)c1)CC2` [Compound 642, N-(3-chlorophenyl)-3-(1,1-difluorobutyl)-1,4,6,7-tetrahydropyrazolo[4,3-c]pyridine-5-carboxamide], under setting [1], the EC50 is 10 to 100 nM.
`O=C(Nc1cccc(Cl)c1)N1CCc2[nH]nc(C3=CCOCC3)c2C1` [Compound 274]: under setting [1], the half-maximal effective concentration (EC50) was in the range of 100 to 500 nM.
In the case of `N#Cc1cccc(NC(=O)N2CCc3[nH]nc(C45CCCC4C5)c3C2)c1F` (stereo not shown) [Compound 786], the EC50 under setting [1] is 10 to 100 nM.
On to `C[C@H]1Cc2[nH]nc(C3CCCO3)c2CN1C(=O)Nc1ccc(F)c(C#N)c1` (single isomer, unassigned) [969 D1], for which the EC50 under setting [1] lay in the range of 100 to 500 nM.
Regarding `C=C(C)c1n[nH]c2c1CN(C(=O)Nc1ccnc(Cl)c1F)CC2` [Compound 547], under setting [1], the EC50 lay in the range of 100 to 500 nM.
Still for that read-out and setting: then `O=C(Nc1cccc(Cl)c1)N1CCc2[nH]nc(C3CCCO3)c2C1` (stereo not shown) [Compound 861, N-(3-chlorophenyl)-3-tetrahydrofuran-2-yl-1,4,6,7-tetrahydropyrazolo[4,3-c]pyridine-5-carboxamide], with 10 to 100 nM; and `CCC(F)(F)c1n[nH]c2c1CN(C(=O)Nc1cccc(Cl)c1)CC2` [Compound 696, N-(3-chlorophenyl)-3-(1,1-difluoropropyl)-1,4,6,7-tetra hydropyrazolo[4,3-c]pyridine-5-carboxamide], with 100 to 500 nM; and `Cc1cc(NC(=O)N2CCc3[nH]nc(C45CCCC4C5)c3C2)ccc1F` (stereo not shown) [Compound 788], with 10 to 100 nM.
The same measure, in the same setting: for `O=C(Nc1cccc(Cl)c1)N1CCc2[nH]nc(C3CCC3)c2C1` [Compound 554, N-(3-chlorophenyl)-3-cyclobutyl-1,4,6,7-tetrahydropyrazolo[4,3-c]pyridine-5-carboxamide] the value was 10 to 100 nM; for `O=C(Nc1ccc(F)c(Br)c1)N1CCc2[nH]nc(C3CCC3)c2C1` [Compound 667], 10 to 100 nM; for `O=C(Nc1cccc(Cl)c1)N1CCc2[nH]nc(C3CCOCC3)c2C1` [Compound 275], 100 to 500 nM.
On to `O=C(Nc1cccc(Cl)c1)N1CCc2[nH]nc(C3CCC(O)C3)c2C1` (stereo not shown) [Compound 742, N-(3-chlorophenyl)-3-(3-hydroxycyclopentyl)-1,4,6,7-tetrahydropyrazolo[4,3-c] pyridine-5-carboxamide], for which the EC50 under setting [1] lay in the range of 100 to 500 nM.
As to `O=C(Nc1ccnc(Cl)c1F)N1CCc2[nH]nc(C3CCC3)c2C1` [Compound 660], the EC50 under setting [1] lay in the range of 100 to 500 nM.
For the compound `C[C@H]1Cc2[nH]nc(C3CCCO3)c2CN1C(=O)Nc1ccc(F)c(Br)c1` (single isomer, unassigned) [967 D2], the EC50 was in the range of 100 to 500 nM.
Consider `C[C@@H]1Cc2[nH]nc(C3CCCC3)c2CN1C(=O)Nc1ccc(F)c(Br)c1` [928 R], for which the EC50 under setting [1] lay within 10 to 100 nM.
The same measure, in the same setting: for `N#Cc1cc(NC(=O)N2CCc3[nH]nc(C45CCCC4C5)c3C2)ccc1F` (stereo not shown) [Compound 790] the value was 10 to 100 nM; for `CC1Cc2[nH]nc(C3CCC3)c2CN1C(=O)Nc1ccnc(Br)c1F` (stereo not shown) [760 S], 100 to 500 nM.
Turning to `C[C@H]1Cc2[nH]nc(C3CCCO3)c2CN1C(=O)Nc1ccc(F)c(C#N)c1` (stereo partly shown) [969 D2], the EC50 under setting [1] is 100 to 500 nM.
With `CCC(C)(C)c1n[nH]c2c1CN(C(=O)Nc1cccc(Cl)c1)CC2` [Compound 604, N-(3-chlorophenyl)-3-(1,1-dimethylpropyl)-1,4,6,7-tetrahydropyrazolo [4,3-c]pyridine-5-carboxamide], the EC50 under setting [1] was in the range of 100 to 500 nM.
Still for that read-out and setting: for `C[C@H]1Cc2[nH]nc(C3CCCC3)c2CN1C(=O)Nc1ccc(F)c(Br)c1` [928 S] the value was 10 to 100 nM; for `O=C(Nc1cccc(Br)c1F)N1CCc2[nH]nc(C3CCC3)c2C1` [Compound 662], 10 to 100 nM; for `Cc1cc(NC(=O)N2Cc3c(C4CCCO4)n[nH]c3C[C@@H]2C)ccc1F` (single isomer, unassigned) [971 D1], 10 to 100 nM.
`C[C@@H]1Cc2[nH]nc(C3CCCC3)c2CN1C(=O)Nc1cccc(Cl)c1` [934 R]: under setting [1], the EC50 is 10 to 100 nM.
For `C[C@H]1Cc2[nH]nc(C3CCCO3)c2CN1C(=O)Nc1ccc(F)c(Cl)c1` (stereo partly shown) [965 D2], the EC50 under setting [1] was in the range of 10 to 100 nM.
As to `CC(CO)c1n[nH]c2c1CN(C(=O)Nc1cccc(Cl)c1)CC2` (stereo not shown) [Compound 388, N-(3-chlorophenyl)-3-(2-hydroxy-1-methyl-ethyl)-1,4,6,7-tetrahydropyrazolo[4,3-c]pyridine-5-carboxamide], the “HBV replication inhibition >50% at 10 μM (qualitative flag)” value (shortened to “HBV replication inhibition >50% at 10 μM”) was “+ (‘+’ indicates >50% activity at 10 μM)”.
In the case of `C[C@H]1Cc2[nH]nc(C3CCCC3)c2CN1C(=O)Nc1ccnc(Br)c1F` [929 S], under setting [1], the EC50 is 10 to 100 nM.
For `CC(C)(O)c1n[nH]c2c1CN(C(=O)Nc1cccc(Cl)c1)CC2` [Compound 238], the “HBV replication inhibition >50% at 10 μM” value was “+ (‘+’ indicates >50% activity at 10 μM)”.
Regarding `C[C@H]1Cc2[nH]nc(C3CCCO3)c2CN1C(=O)Nc1ccc(F)c(Br)c1` (single isomer, unassigned) [967 D1], the EC50 was in the range of 10 to 100 nM.
Regarding `O=C(Nc1ccnc(Br)c1F)N1CCc2[nH]nc(C34CCCC3C4)c2C1` (stereo not shown) [Compound 791], the EC50 under setting [1] was 10 to 100 nM.
With `C[C@@H]1Cc2[nH]nc(C3CCCC3)c2CN1C(=O)Nc1ccnc(Br)c1F` [929 R], the EC50 under setting [1] is 10 to 100 nM.
For `C[C@@H]1Cc2[nH]nc(C3CCCC3)c2CN1C(=O)Nc1ccc(F)c(Cl)c1` [932 R], the EC50 under setting [1] was in the range of 10 to 100 nM.
With `O=C(Nc1cccc(Cl)c1)N1CCc2[nH]nc(O)c2C1` [Compound 241, N-(3-chlorophenyl)-3-hydroxy-1,4,6,7-tetrahydropyrazolo[4,3-c] pyridine-5-carboxamide], the “HBV replication inhibition >50% at 10 μM” value is given as “+ (‘+’ indicates >50% activity at 10 μM)”.
As for `CC1(c2n[nH]c3c2CN(C(=O)Nc2cccc(Cl)c2)CC3)CCC1` [Compound 694, N-(3-chlorophenyl)-3-(1-methylcyclobutyl)-1,4,6,7-tetrahydropyrazolo[4,3-c]pyridine-5-carboxamide], the EC50 under setting [1] lay within 10 to 100 nM.
In the case of `Cc1cccc(NC(=O)N2Cc3c(C4CCCC4)n[nH]c3C[C@@H]2C)c1` [933 S], the EC50 under setting [1] was in the range of 10 to 100 nM.
Take `O=C(Nc1cccc(Br)c1)N1CCc2[nH]nc(C3CCC3)c2C1` [Compound 663]: the EC50 under setting [1] fell in the range of 10 to 100 nM.
On the same count and under the same terms, for `O=C(Nc1cccc(Cl)c1)N1CCc2[nH]nc(C3=CCCCC3)c2C1` [Compound 337, N-(3-chlorophenyl)-3-(cyclohexen-1-yl)-1,4,6,7-tetrahydro pyrazolo[4,3-c]pyridine-5-carboxamide] the value was 10 to 100 nM; for `C=C(C)c1n[nH]c2c1CN(C(=O)Nc1cccc(C)c1)CC2` [Compound 549, 3-isopropenyl-N-(m-tolyl)-1,4,6,7-tetrahydropyrazolo[4,3-c]pyridine-5-carboxamide], 100 to 500 nM; for `CC(C)c1n[nH]c2c1CN(C(=O)Nc1cccc(Cl)c1)CC2` [Compound 267], 100 to 500 nM.
The same measure, in the same setting: then `C[C@H]1Cc2[nH]nc(C3CCCO3)c2CN1C(=O)Nc1ccc(F)c(Cl)c1` (single isomer, unassigned) [965 D1], with 10 to 100 nM; and `O=C(Nc1cccc(Cl)c1)N1CCc2[nH]nc(C3=CCCC3)c2C1` [Compound 338, N-(3-chlorophenyl)-3-(cyclopenten-1-yl)-1,4,6,7-tetrahydropyrazolo[4,3-c]pyridine-5-carboxamide], with 10 to 100 nM; and `O=C(Nc1ccc(F)c(F)c1)N1CCc2[nH]nc(C3CCC3)c2C1` [Compound 669], with 100 to 500 nM.
